Tested on: mice
Assay: acute toxicity (LD50) after bolus intravenous administration
Format: in vivo
Settings: ratio to the analogue lacking the 6-substituent (or 5- and 6-substituents) in the pyridyl group
Description: The compounds of Structure (2) have particularly good histamine H,- and H2- antagonist activity and are less acutely toxic in mice (when administered intravenously) than the corresponding compounds of Structure (2) in which R is hydrogen. This decrease in acute toxicity is in general is not accompanied by a reduction in histamine H1-antagonist activity or histamine H2-antagonist activity. […] (LD50 is the minimum dose which kills 50% of mice after bolus intravenous administration of the test compound).

| Compound | LD50 value compared with the corresponding 5-(3-pyridylmethyl) analogue |
| --- | --- |
| Cc1ccc(Cc2cnc(NCCSCc3nc[nH]c3C)[nH]c2=O)cn1 [Example 2, 2-[2-(5-methyl-4-imidazolylmethylthio)ethylamino]-5-(6-methyl-3-pyridylmethyl)-4-pyrimidone] | at least three |
| COc1cccnc1CCCCNc1ncc(Cc2ccc(C)nc2)c(=O)[nH]1 [Example 1, 2-[4-(3-methoxy-2-pyridyl)butylamino]-5-(6-methyl-3-pyridylmethyl)-4-pyrimidone] | at least three |
| Cc1ccc(Cc2cnc(NCCCCc3ncccc3Cl)[nH]c2=O)cn1 [Example 7, 2-[4-(3-chloro-2-pyridyl)butylamino]-5-(6-methyl-3-pyridyImethyl)-4-pyrimidone] | at least three |
| Cc1ccc(Cc2cnc(NCCSCc3nccs3)[nH]c2=O)cn1 [Example 9, 2-[2-(2-thiazolylmethylthio)ethylamino]-5-(6-methyl-3-pyridylmethyl)-4-pyrimidone] | at least three |
| COc1ccc(Cc2cnc(NCCSCc3nc[nH]c3C)[nH]c2=O)cn1 [Example 13, 2-[2-(5-methyl-4-imidazolylmethylthio)ethylamino]-5-(6-methoxy-3-pyridyImethyl)-4-pyrimidone] | at least three |
| Cc1cc(Cc2cnc(NCCSCc3ncccc3Br)[nH]c2=O)cnc1C [Example 11, 2-[2-(3-bromo-2-pyridylmethylthio)ethylamino]-5-(5,6-dimethyl-3-pyridylmethyl)-4-pyrimidone] | at least three |

— patent publication EP0017679B1, “Pyridylalkylpyrimidone compounds, process for preparing them and pharmaceutical compositions containing them” (SMITH KLINE & FRENCH LABORATORIES LIMITED, priority 1979, dated 1980)
